Experimental data published in patent US9029092B2, “Solution phase homogeneous assays” (Beckman Coulter, Inc., priority 2009, dated 2015).
Read-outs that look alike come from different tables or passages of the source.

Columns and labels:
[1] = system: PSA; assay: Screening SSIA by homogeneous PSA immunoassay (anti-PSA-AK1 + anti-PSA-HRP); assay type: biochemical, human
Procedure: This example presents one method used for testing of candidate compounds for functionality as SSIA in assays of the present disclosure. Testing was conducted in a model screening immunoassay of the protein PSA. Tests were run using a 96-well microtiter plate format. A solution containing 30 μL of mouse anti-PSA-AK1 (66 ng), 30 μL of mouse anti-PSA-HRP conjugate (7.8 ng), 36 μL of human female serum, and 24 μL of PSA calibrator were pipetted into each well. The plate was incubated at 37° C. for 10 minutes. A 5 μL aliquot of the test compound (various concentrations) was added to each well. Chemiluminescence was triggered by the addition of 100 μL of a solution of a trigger solution whose composition is listed below. The chemiluminescent flash was integrated for 5 seconds after the addition of the trigger solution using a Luminoskan Asent® plate luminometer, (Thermo Fischer Scientific, Inc., Waltham, Mass.).
It is desirable that the improvement factor be at least 2 (S5/S0≧ about 20-30) and more desirable that improvement factor be at least 5 (S5/S0≧ about 50), yet more desirable that S5/S0 be ≧100 in the present screen.

[2] = system: biotinylated HRP; assay: Model system for selection of SSIA (AK1/streptavidin BSA microparticles + biotinylated HRP); assay type: biochemical, horseradish; settings: SSIA 100 μM final; for light intensity, BTN-HRP0: Btn-HRP 0 ng/mL; for light intensity, BTN-HRP0 / light intensity, BTN-HRP1 / light intensity, BTN-HRP10 / light intensity, BTN-HRP100 / light intensity, BTN-HRP250: total HRP 500 ng/mL; for S1/S0: Btn-HRP 1 ng/mL vs 0; for light intensity, BTN-HRP1: Btn-HRP 1 ng/mL; for S2/S0: Btn-HRP 10 ng/mL vs 0; for light intensity, BTN-HRP10: Btn-HRP 10 ng/mL; for S3/S0: Btn-HRP 100 ng/mL vs 0; for light intensity, BTN-HRP100: Btn-HRP 100 ng/mL; for S4/S0: Btn-HRP 250 ng/mL vs 0; for light intensity, BTN-HRP250: Btn-HRP 250 ng/mL
Procedure: The model system uses a microparticle conjugated to BSA (bovine serum albumin) labeled with a […] and acridan ketenedithioacetal chemiluminescent label (AK1) as the chemiluminescent-labeled sbp, and biotinylated HRP as the activator-labeled specific binding pair. In the model system, varying amounts of Btn-HRP is added to the chemiluminescent-labeled specific binding pair at 0, 1, 10, 100 and 250 ng/mL. Additional unlabeled HRP is added to reach a total HRP of concentration of 500 ng/mL in each reaction mixture. The unlabeled HRP in combination with the activator-labeled sbp was provided to the chemiluminescent-labeled sbp microparticles to emulate sample. A compound for assessment as an SSIA was also added. This reaction mixture of the model system is then triggered by addition of trigger solution in a manner of assays of the present disclosure.
To prepare the chemiluminescent-labeled sbp on microparticles, Bovine Serum Albumin (BSA) was biotinylated with 4× molar excess of biotin-LC-sulfoNHS (Pierce Biotechnology Inc., Rockford, Ill., USA). Unbound reactants were removed via desalting or dialysis. The biotin-BSA was then reacted with a 5× molar excess of an NHS ester of acridan ketenedithioacetal AK1 in 20 mM sodium phosphate pH 7.2: DMSO 75:25, v/v) followed by desalting in the same buffer. The dual labeled (biotin and AK1) BSA was then coupled with tosyl activated M280 microparticles (Invitrogen Corporation, Carlsbad, Calif., USA) in a 0.1M borate buffer pH 9.5 at a concentration of about 20 μg of labeled BSA per mg of microparticles for 16-24 h at 40° C. After coupling the microparticles were stripped for 1 h at 40° C. with 0.2 M TRIS base, 2% SDS, pH˜11. The stripping process was repeated one additional time. Microparticles were then suspended in a 0.1% BSA/TRIS buffered saline (BSA/TBS) buffer and streptavidin (SA) was added at approximately 15 μg SA per mg microparticles. Streptavidin was mixed with the microparticles for 45-50 min at room temperature. The microparticles were then washed three times and suspended in the same BSA/TBS.
HRP, (Roche Diagnostics, Indianapolis, Ind., USA) was biotinylated with 4× molar excess of biotin-LC-sulfoNHS (Pierce Biotechnology Inc., Rockford, Ill., USA). Alternatively, 25× molar excess of biotin-PEO4-NHS may be used. Unbound reactants were removed via desalting or dialysis.
Each SSIA compound for assessment was solubilized in Buffer II at a concentration at least 10× of the working strength concentration.
25 μl of 1 mg/ml of dual-labeled (biotin and AK1) BSA M280 particles were mixed with 45 μl of working concentration SSIA in Buffer II. The assay volume brought to 85 μl by adding 15 μl of Buffer II. 15 μl of sample containing Btn-HRP:HRP at different ratios (The amount of biotinylated-HRP varied from 0, 1, 10, 100 and 250 ng/mL) was added. The reaction mixture was incubated for 30 min at 37° C., then 100 μL of trigger solution was added and the light intensity recorded. Total volume of reaction mixture, including trigger solution was 200 μL with a final concentration of 100 μM of SSIA.
The screening tests were performed using a modified DxI® Immunoassay System (Beckman Coulter, Inc. Brea, Calif.) as described above.

[3] = system: TnI; assay: Assays utilizing various SSIA in TnI assay; assay type: biochemical; settings: for Signal/Noise S1/S0: calibrator S1; for Signal/Noise S2/S0: calibrator S2; for Signal/Noise S3/S0: calibrator S3; for Signal/Noise S4/S0: calibrator S4; for Signal/Noise S5/S0: calibrator S5; for Signal/Noise S6/S0: calibrator S6
Procedure: In a reaction tube, 400 uL of TnI M6 antibody-HRP conjugate at 0.5 ug/mL in buffered aqueous solution at pH. 8.0 (100 mM Tris, 150 mM NaCl, 0.1 mM EDTA, 0.2% Tween-20 and 1% BSA), 400 uL of AK1˜Dex70/31˜Streptavidin (fraction 1) 2:1 SA/Ab at 2 ug/mL Ab also in buffered aqueous solution at pH 8.0, and 400 uL of calibrator standard solution containing the TnI analyte at a known concentration. One tube was prepared for each calibrator concentration. […] Next, 25 uL of each antioxidant as a concentrated solution of 2 mM, 1 mM or 0.5 mM was pipetted into the plate wells using a repeater pipette. The plates were rotated for 10 seconds to mix and incubated between 5 to 33 minutes. Detection was performed with a SpectraMax L injection plate luminometer.

[4] = test compound final conc. […] ([…]), S5 = 129 ng PSA/mL vs zero PSA
[5] = test compound final conc. 0.244 mM (244 uM)
[6] = test compound final conc. 0.061 mM (61 uM)
[7] = SSIA final concentration 125 uM
[8] = SSIA final concentration 250 uM
[9] = SSIA final concentration 500 uM

## CC1(C)OC(=O)C(O)=C1O
[1]; [4]
  S5/S0: 467

## O=S([O-])[O-].[Na+].[Na+] [Na2SO3]
[1]; test compound final conc. 15 uM
  S5/S0: 59

## COc1ccccc1N
[1]; [4]
  S5/S0: 7

## Oc1ccc([C@@H]2Oc3cc(O)c(O)cc3C[C@@H]2O)cc1O
[1]; [4]
  S5/S0: 323

## O=C1O[C@H]([C@@H](O)CO)C(O)=C1O [drawing 128]
[1]; [4]
  S5/S0: 10.3

## Nc1ccc2ccccc2c1O
[1]; [5]
  S5/S0: 109

## Nc1ccc(O)cc1O
[1]; test compound final conc. 0.030 mM
  S5/S0: 161

## O=C(O)c1cccc(O)c1O
[1]; [4]
  S5/S0: 22

## Oc1ccc(Cl)cc1O [drawing 108]
[1]; [5]
  S5/S0: 409

## O=C(O)c1ccc(O)c(O)c1
[1]; [4]
  S5/S0: 178

## O=S(=O)([O-])CCCN1c2ccccc2Cc2ccccc21.[Na+]
[1]; [5]
  S5/S0: 15

## O=C1O[C@H]([C@@H](O)CO)C(=O)C1=O
[1]; [4]
  S5/S0: 26

## O=C1C(O)=C(O)C(=O)C(O)=C1O
[1]; [6]
  S5/S0: 51

## [N-]=[N+]=[N-].[Na+] [NaN3]
[1]; test compound final conc. 34 uM
  S5/S0: 19

## Nc1cc(Cl)ccc1O
[1]; [5]
  S5/S0: 205

## Nc1c(O)ccc2ccccc12
[1]; [4]
  S5/S0: 63

## O[C@@H](CS)[C@@H](O)CS [DTT]
[1]; test compound final conc. 72 uM
  S5/S0: 20

## O=C1O[C@H]([C@@H](O)CO)C([O-])=C1O.[Na+]
[1]; [4]
  S5/S0: 9.2

## Nc1cccc(Cl)c1O
[1]; [5]
  S5/S0: 300

## O=C(O)/C=C/c1ccc(O)c(O)c1
[1]; [4]
  S5/S0: 116

## Cc1ccc(O)c(O)c1
[1]; [4]
  S5/S0: 142

## Oc1ccc(O)c(Br)c1
[1]; [4]
  S5/S0: 570

## c1ccc2c(c1)Cc1ccccc1S2
[1]; [4]
  S5/S0: 9

## O=C(c1ccccc1)C1c2ccccc2Nc2ccccc21
[1]; [4]
  S5/S0: 9

## N[C@@H](CS)C(=O)O [L-Cysteine]
[1]; [4]
  S5/S0: 22

## O=S(=O)([O-])CCCOCCCN1c2ccccc2Cc2ccccc21.[Na+]
[1]; [5]
  S5/S0: 6

## O=C(O)c1cc(O)c2ccccc2n1
[1]; [4]
  S5/S0: 6

## Cn1ccnc1S
[1]; test compound final conc. 36.7 mM
  S5/S0: 102

## OCCO [Ethylene glycol]
[1]
  S5/S0: 14

## Nc1ccccc1O [2-amino phenol, 2-aminophenol]
[2]
  light intensity, BTN-HRP0: 65
  S1/S0: 5.5
  light intensity, BTN-HRP1: 356
  S2/S0: 132.8
  light intensity, BTN-HRP10: 8,632
  S3/S0: 32195.4
  light intensity, BTN-HRP100: 2,092,703
  S4/S0: 61672.1
  light intensity, BTN-HRP250: 4,008,689
  effectiveness as SSIA in the model system: demonstrating utility as SSIA
[3]; [7]
  Signal/Noise S1/S0: 1.4
  Signal/Noise S2/S0: 2.3
  Signal/Noise S3/S0: 7.6
  Signal/Noise S4/S0: 27.2
  Signal/Noise S5/S0: 183.7
  Signal/Noise S6/S0: 1604.7
[3]; [8]
  Signal/Noise S1/S0: 0.9
  Signal/Noise S2/S0: 1.7
  Signal/Noise S3/S0: 4.5
  Signal/Noise S4/S0: 15.4
  Signal/Noise S5/S0: 101.7
  Signal/Noise S6/S0: 739.1
[3]; [9]
  Signal/Noise S1/S0: 1.3
  Signal/Noise S2/S0: 1.8
  Signal/Noise S3/S0: 4.8
  Signal/Noise S4/S0: 10.8
  Signal/Noise S5/S0: 52.5
  Signal/Noise S6/S0: 329.9

## NNC(=O)c1ccccc1O
[1]; [6]
  S5/S0: 23

## Cc1c(C)c2c(c(C)c1O)CCC(C)(C(=O)O)O2 (centres unmarked) [Trolox ®]
[2]
  light intensity, BTN-HRP0: 173
  S1/S0: 8.4
  light intensity, BTN-HRP1: 1,460
  S2/S0: 215.1
  light intensity, BTN-HRP10: 37,291
  S3/S0: 41832.7
  light intensity, BTN-HRP100: 7,251,008
  S4/S0: 62274.5
  light intensity, BTN-HRP250: 10,794,247
  effectiveness as SSIA in the model system: demonstrating utility as SSIA
[3]; [7]
  Signal/Noise S1/S0: 1.6
  Signal/Noise S2/S0: 3.3
  Signal/Noise S3/S0: 11.5
  Signal/Noise S4/S0: 44.4
  Signal/Noise S5/S0: 302.0
  Signal/Noise S6/S0: 2713.1
[3]; [8]
  Signal/Noise S1/S0: 2.0
  Signal/Noise S2/S0: 3.5
  Signal/Noise S3/S0: 12.8
  Signal/Noise S4/S0: 45.8
  Signal/Noise S5/S0: 295.1
  Signal/Noise S6/S0: 2334.5
[3]; [9]
  Signal/Noise S1/S0: 1.7
  Signal/Noise S2/S0: 2.6
  Signal/Noise S3/S0: 11.3
  Signal/Noise S4/S0: 31.1
  Signal/Noise S5/S0: 192.0
  Signal/Noise S6/S0: 1181.7
